Assay [1] has as its system p-ERK (AsPC-1 cells). The assay can be described thus: Phospho-ERK1/2 MSD Assay. The format is cell-based. Here is the method:
Sixteen hours prior to compound treatment, AsPC-1 cells were seeded in 96-well cell culture plates at a density of 25,000 cells/well and incubated at 37° C., 5% CO2. A compound dose-response titration was diluted in growth media, added to appropriate wells of a cell culture plate, and then incubated at 37° C., 5% CO2 for 2 hours. […] Phosphorylation of ERK1/2 in compound-treated lysates was assayed using Phospho-ERK1/2 Whole Cell Lysate kits (Meso Scale Discovery K151DWD) according to the manufacturer's protocol. Assay plates were read on a Meso Scale Discovery Sector Imager 6000, and data were analyzed using a 4-parameter logistic model to calculate IC50 values.

For assay [2], the target named is KRAS G12D (Homo sapiens, UniProt P01116, G12D). The assay can be described thus: KRAS G12D TR-FRET Assay. Particulars: His-tagged KRAS G12D, biotinylated KRPep-2d, read-out: KRAS G12D Binding IC50. Here is the method: The plate was incubated for 30 minutes at room temperature. Biotinylated KRPep-2d substrate (Amgen) was diluted to 20 nM in Assay Buffer and 2 uL was added to all wells and incubated for 1 hour at room temperature. Detection Reagent (0.4 nM LANCE Eu-W1024 Anti-6×His (Perkin Elmer AD0401), 5 nM streptavidin-d2 (Cisbio 610SADLA)) was prepared in Assay Buffer, then 4 μL was added to the plate and incubated for 1 hour at room temperature.
Chain of KRAS G12D (Homo sapiens, UniProt P01116, G12D) (P01116 1-188 isoform P01116-2 G12D): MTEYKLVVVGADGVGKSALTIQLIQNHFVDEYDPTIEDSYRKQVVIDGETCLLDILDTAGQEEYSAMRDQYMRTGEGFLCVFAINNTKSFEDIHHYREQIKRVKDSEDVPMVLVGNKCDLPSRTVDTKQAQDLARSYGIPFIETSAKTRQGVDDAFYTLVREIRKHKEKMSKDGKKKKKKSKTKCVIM
On the technique in general: Time-resolved FRET reads energy transfer from a long-lived donor to a nearby acceptor.

For assay [3], the target named is KRAS G12D (Homo sapiens, UniProt P01116, C118A/G12D). The assay can be described thus: KRAS G12D Coupled Nucleotide Exchange Assay. Format: biochemical. Conditions: GDP-bound KRAS G12D/C118A, 2 hours pre-incubation, SOS-mediated nucleotide exchange, AlphaScreen. As for the experimental part:
The assay plates were then read on a PerkinElmer EnVision Multilabel Reader, using AlphaScreen® technology, and data were analyzed using a 4-parameter logistic model to calculate IC50 values.

[4] abbreviates: Homo sapiens, ASPC1, 2 h, read-out: 2 h p-ERK (AsPC-1 cells), IC50 (μM), AsPC-1 cells, 2 hours compound treatment.
[5] abbreviates: read-out: 2 h p-ERK (AsPC-1 cells), IC50, AsPC-1 cells, 2 hours compound treatment.

SMILES strings stand for the structures. Read-outs that look alike come from different tables or passages of the source.

Chain of KRAS G12D (Homo sapiens, UniProt P01116, C118A/G12D) (P01116 1-169 isoform P01116-2 G12D/C118A): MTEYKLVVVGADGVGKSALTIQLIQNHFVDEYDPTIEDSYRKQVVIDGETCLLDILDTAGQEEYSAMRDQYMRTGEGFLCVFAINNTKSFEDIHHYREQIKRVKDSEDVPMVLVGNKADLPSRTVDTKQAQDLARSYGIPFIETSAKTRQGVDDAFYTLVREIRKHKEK

With `CCc1c(F)ccc2cc(O)cc(-c3ncc4c(N5CCCC6(CCCO6)C5)nc(OC[C@@]56CCCN5C[C@H](F)C6)nc4c3F)c12` (stereo partly drawn) [Example 27, 5-Ethyl-6-fluoro-4-(8-fluoro-2-(((2R,7aS)-2-fluorotetrahydro-1H-pyrrolizin-7a(5H)-yl)methoxy)-4-(1-oxa-7-azaspiro[4.5]decan-7-yl)pyrido[4,3-d]pyrimidin-7-yl) naphthalen-2-ol], the IC50 in assay [1] (setting [4]) was 0.137 µM; in assay [2], 4 nM; in assay [3], 6 nM.
Take `CCc1c(F)ccc2cc(O)cc(-c3ncc4c(N5CCCC6(CCOC6)C5)nc(OC[C@@]56CCCN5C[C@H](F)C6)nc4c3F)c12` (stereo partly drawn) [Example 33, 5-Ethyl-6-fluoro-4-(8-fluoro-2-(((2R,7aS)-2-fluorotetrahydro-1H-pyrrolizin-7a(5H)-yl)methoxy)-4-(2-oxa-7-azaspiro[4.5]decan-7-yl)pyrido[4,3-d]pyrimidin-7-yl)naphthalen-2-ol]: the IC50 in assay [1] (setting [4]) came to 0.452 µM; in assay [2] it was 8 nM; in assay [3] it was 12 nM.
For `CCc1c(F)ccc2cc(O)cc(-c3ncc4c(N5CCCC6(COC6)C5)nc(OC[C@@]56CCCN5C[C@H](F)C6)nc4c3F)c12` [Example 20, 5-Ethyl-6-fluoro-4-(8-fluoro-2-(((2R,7aS)-2-fluorotetrahydro-1H-pyrrolizin-7a(5H)-yl)methoxy)-4-(2-oxa-6-azaspiro[3.5]nonan-6-yl)pyrido[4,3-d]pyrimidin-7-yl)naphthalen-2-ol], the IC50 turned out to be 2 nM in assay [2] and 3 nM in assay [3].
For the compound `Oc1cc(-c2ncc3c(N4CCC[C@]5(CCO5)C4)nc(OC[C@@]45CCCN4C[C@H](F)C5)nc3c2F)c2c(Cl)c(F)ccc2c1` (single isomer, unassigned) [Example 58], the IC50 in assay [1] (setting [4]) worked out at 0.003 µM; in assay [2], 1 nM; in assay [3], 1 nM.
Consider `CCc1c(F)ccc2cccc(-c3ncc4c(N5CCCC6(CNC6=O)C5)nc(OC[C@@]56CCCN5C[C@H](F)C6)nc4c3F)c12` (stereo partly drawn) [Example 32, 6-(7-(8-Ethyl-7-fluoronaphthalen-1-yl)-8-fluoro-2-(((2R,7aS)-2-fluorotetrahydro-1H-pyrrolizin-7a(5H)-yl)methoxy)pyrido[4,3-d]pyrimidin-4-yl)-2,6-diazaspiro[3.5]nonan-1-one], for which the IC50 stood at 4 nM in assay [2] and 5 nM in assay [3].
In the case of `CCc1c(F)ccc2cccc(-c3ncc4c(N5CCCC6(CNC(=O)O6)C5)nc(OC[C@@]56CCCN5C[C@H](F)C6)nc4c3F)c12` (single isomer, unassigned) [Example 64], the IC50 in assay [2] came to 305 nM; in assay [3], 129 nM.
On the same counts, the results for `CCc1c(F)ccc2cc(O)cc(-c3ncc4c(N5CCCC6(CNC(=O)C6)C5)nc(OC[C@@]56CCCN5C[C@H](F)C6)nc4c3F)c12` (single isomer, unassigned) [Example 7] are 3 nM and 8 nM.
Regarding `CCc1c(F)ccc2cc(O)cc(-c3ncc4c(N5CCCC6(CCO6)C5)nc(OC[C@@]56CCCN5C[C@H](F)C6)nc4c3F)c12` (single isomer, unassigned) [Example 22], the IC50 in assay [1] (setting [5]) turned out to be 0.252 µM.
`CCc1c(F)ccc2cc(O)cc(-c3ncc4c(N5CCCC6(CCC6O)C5)nc(OC[C@@]56CCCN5C[C@H](F)C6)nc4c3F)c12` (single isomer, unassigned) [Example 48]: the values for the IC50 in assay [2] and in assay [3] were 36 nM and 54 nM, respectively.
Turning to `CCc1c(F)ccc2cc(O)cc(-c3ncc4c(N5CC(O)CC6(CC6)C5)nc(OC[C@@]56CCCN5C[C@H](F)C6)nc4c3F)c12` (single isomer, unassigned) [Example 4], the results for the IC50 in assay [2] and in assay [3] were 2 nM and 3 nM, respectively.
As for `CCc1c(F)ccc2cc(O)cc(-c3ncc4c(N5CCCC6(CC(O)C6)C5)nc(OC[C@@]56CCCN5C[C@H](F)C6)nc4c3F)c12` (single isomer, unassigned) [Example 55], in assay [1] (setting [5]), the IC50 stood at 0.078 µM.
Same read-out and setting: as for `CCc1c(F)ccc2cc(O)cc(-c3ncc4c(N5CCCC6(CCO6)C5)nc(OC[C@@]56CCCN5C[C@H](F)C6)nc4c3F)c12` (single isomer, unassigned) [Example 21], the figure is 0.003 µM.
`CCc1c(F)ccc2cc(O)cc(-c3ncc4c(N5CCCC6(CCS6(=O)=O)C5)nc(OC[C@@]56CCCN5C[C@H](F)C6)nc4c3F)c12` (some centres unmarked) [Example 43]: the IC50 in assay [2] was determined as 12 nM; in assay [3], 8 nM.
Consider `CCc1c(F)ccc2cc(O)cc(-c3ncc4c(N5CCCC6(CNC6=O)C5)nc(OC[C@@]56CCCN5C[C@H](F)C6)nc4c3F)c12` (single isomer, unassigned) [Example 46], for which the IC50 in assay [2] is 59 nM; in assay [3], 65 nM.
The corresponding values for `CCc1c(F)ccc2cc(O)cc(-c3ncc4c(N5CCOC6(CCC6)C5)nc(OC[C@@]56CCCN5C[C@H](F)C6)nc4c3F)c12` [Example 31, 5-Ethyl-6-fluoro-4-(8-fluoro-2-(((2R,7aS)-2-fluorotetrahydro-1H-pyrrolizin-7a(5H)-yl)methoxy)-4-(5-oxa-8-azaspiro[3.5]nonan-8-yl)pyrido[4,3-d]pyrimidin-7-yl)naphthalen-2-ol] are 27 nM and 28 nM.
With `CCc1c(F)ccc2cc(O)cc(-c3ncc4c(N5CCCC6(CC(O)C6)C5)nc(OC[C@@]56CCCN5C[C@H](F)C6)nc4c3F)c12` (single isomer, unassigned) [Example 54], the IC50 in assay [1] (setting [5]) came out at 0.008 µM.
Turning to `CCc1c(F)ccc2cc(O)cc(-c3ncc4c(N5CCCC6(C5)CN(S(C)(=O)=O)C6)nc(OC[C@@]56CCCN5C[C@H](F)C6)nc4c3F)c12` [Example 52, 5-Ethyl-6-fluoro-4-(8-fluoro-2-(((2R,7aS)-2-fluorotetrahydro-1H-pyrrolizin-7a(5H)-yl)methoxy)-4-(2-(methylsulfonyl)-2,6-diazaspiro[3.5]nonan-6-yl)pyrido[4,3-d]pyrimidin-7-yl)naphthalen-2-ol], the 50% inhibitory concentration (IC50) in assay [2] and in assay [3] was 6 nM in each case.
With `CCc1c(F)ccc2cc(O)cc(-c3ncc4c(N5CCCC6(CCN6)C5)nc(OC[C@@]56CCCN5C[C@H](F)C6)nc4c3F)c12` (stereo partly drawn) [Example 5, 5-Ethyl-6-fluoro-4-(8-fluoro-2-(((2R,7aS)-2-fluorotetrahydro-1H-pyrrolizin-7a(5H)-yl)methoxy)-4-(1,6-diazaspiro[3.5]nonan-6-yl)pyrido[4,3-d]pyrimidin-7-yl)naphthalen-2-ol], the IC50 turned out to be 40 nM in assay [2] and 17 nM in assay [3].
As for `CCc1c(F)ccc2cc(O)cc(-c3ncc4c(N5CCCC6(CNC6)C5)nc(OC[C@@]56CCCN5C[C@H](F)C6)nc4c3F)c12` [Example 38, 5-Ethyl-6-fluoro-4-(8-fluoro-2-(((2R,7aS)-2-fluorotetrahydro-1H-pyrrolizin-7a(5H)-yl)methoxy)-4-(2,6-diazaspiro[3.5]nonan-6-yl)pyrido[4,3-d]pyrimidin-7-yl)naphthalen-2-ol], the IC50 in assay [2] is 31 nM; in assay [3] it was 33 nM.
The corresponding values for `CCc1c(F)ccc2cc(O)cc(-c3ncc4c(N5CCCC6(CCO6)C5)nc(OC[C@@]56CCCN5C[C@H](F)C6)nc4c3C)c12` (single isomer, unassigned) [Example 62] are 68 nM and 42 nM.
On to `CCc1c(F)ccc2cc(O)cc(-c3ncc4c(N5CCCC6(CCC(=O)O6)C5)nc(OC[C@@]56CCCN5C[C@H](F)C6)nc4c3F)c12` (single isomer, unassigned) [Example 65], for which the IC50 was 74 nM in assay [2] and 42 nM in assay [3].
Regarding `CCc1c(F)ccc2cc(O)cc(-c3ncc4c(N5CCOCC6(COC6)C5)nc(OCC56CCCN5C[C@H](F)C6)nc4c3F)c12` (stereo in doubt) [Example 50, 5-Ethyl-6-fluoro-4-(8-fluoro-2-(((2R,7aS)-2-fluorotetrahydro-1H-pyrrolizin-7a(5H)-yl)methoxy)-4-(2,6-dioxa-9-azaspiro[3.6]decan-9-yl)pyrido[4,3-d]pyrimidin-7-yl)naphthalen-2-ol], the IC50 turned out to be 56 nM in assay [2] and 50 nM in assay [3].
For the compound `CCc1c(F)ccc2cc(O)cc(-c3ncc4c(N5CCC6(CCCS6(=O)=O)C5)nc(OCC56CCCN5C[C@H](F)C6)nc4c3F)c12` (stereo in doubt) [Example 51, 7-(7-(8-Ethyl-7-fluoro-3-hydroxynaphthalen-1-yl)-8-fluoro-2-(((2R,7aS)-2-fluorotetrahydro-1H-pyrrolizin-7a(5H)-yl)methoxy)pyrido[4,3-d]pyrimidin-4-yl)-1-thia-7-azaspiro[4.4]nonane 1,1-dioxide], the figures for the IC50 in assay [2] and in assay [3] were 17 nM and 13 nM, respectively.
On the same counts, the results for `CCc1c(F)ccc2cc(O)cc(-c3ncc4c(N5CCCC6(CCNC6=O)C5)nc(OC[C@@]56CCCN5C[C@H](F)C6)nc4c3F)c12` (stereo partly drawn) [Example 47, 7-(7-(8-Ethyl-7-fluoro-3-hydroxynaphthalen-1-yl)-8-fluoro-2-(((2R,7aS)-2-fluorotetrahydro-1H-pyrrolizin-7a(5H)-yl)methoxy)pyrido[4,3-d]pyrimidin-4-yl)-2,7-diazaspir[4.5]decan-1-one] are 51 nM and 24 nM.

Usually IC50 stands for the concentration needed to halve the response being measured.

The values are drawn from patent US20240417412A1, “HETEROCYCLIC COMPOUNDS AND METHODS OF USE” (AMGEN INC., priority 2022, published 2024).
